# Results reported in patent US12447149B2, “Formulations of vimseltinib” (Deciphera Pharmaceuticals, LLC, priority 2023, dated 2025).
# Tests used:
# Type in all cases: physicochemical
# [1] = Static storage stability of crystalline dihydrate and anhydrous forms (XRPD, DSC, KF weekly for four weeks)
# Procedure: The stability of crystalline dihydrate and anhydrous forms of the compound represented by Formula (I) at varying relative humidity (RH) and temperature was investigated.
# For example, the stability of crystalline dihydrate and anhydrous forms of the compound represented by Formula (I), as prepared according to Example 1 and Example 2, respectively, was studied under other conditions by placing aliquots of each form in static storage at conditions of 40° C./75% RH, 25° C./97% RH, 40° C./0% RH and 25° C./0% RH and analyzing the aliquots once weekly for four weeks using XRPD, DSC, and KF.
# [2] = Particle size distribution (PSD) of crystalline dihydrate form and seeds, DMAC-water crystallization
# [3] = Particle size analysis by laser diffraction (Malvern Mastersizer 3000, wet dispersion); settings: volume distribution
# Procedure: Particle size analysis of dihydrate vimseltinib drug substance samples was determined by laser diffraction using a Malvern Mastersizer 3000 instrument in a wet dispersion mode.
# Prior to analysis, dihydrate drug substance samples were rotated and inverted in the sample container at least 10 times to ensure homogeneity. Between 20 and 25 mg of sample was weighed into a Malvern Glass tube. 20 mL of the Dispersant Solution (0.1% Span 85 in Isoparaffin G) was added and vortexed until a homogeneous suspension was obtained (˜30 s). The sample was then placed in a Vibra-Cell ultrasonic processor. The amplitude was set to the target of 30% (4 Watts) using an external probe (Vibra-Cell) during 90 sec.
# After background measurement, the sample dispersion was slowly added to the dispersion unit of the instrument to achieve an obscuration level target of 5%. The sample was stirred at 3250 rpm for at least 1 minute to ensure dispersion and stabilization of the sample. After stabilization, the measurement was started and performed using a Malvern Mastersizer 3000 according to the method conditions provided in Table 17.
# [4] = jet-milled seed batch, crystallization 1 at 60° C. with 7% seeds, crystallization 2 at 64° C. with 5% seeds
# [5] = storage 25° C./0% RH, Week 4, listed as crystalline dihydrate form (having average crystal sizes of about 1 mm)
# [6] = storage 40° C./0% RH, Week 4, listed as crystalline dihydrate form (having average crystal sizes of about 1 mm)
# [7] = milled seeds of crystalline dihydrate form used in DMAC-water crystallization, listed as 1
# [8] = milled seeds of crystalline dihydrate form used in DMAC-water crystallization, listed as 2
structure (smiles),measurement,setting,value
Cc1nc(-c2cnc(NC(C)C)n(C)c2=O)ccc1Oc1ccnc(-c2cnn(C)c2)c1,KF (%),"[1]; storage 25° C./0% RH, Week 1",0.1%
same,XRPD,"[1]; storage 25° C./0% RH, Week 1",Anhydrous
same,KF (%),"[1]; storage 25° C./0% RH, Week 2",0.1%
same,XRPD,"[1]; storage 25° C./0% RH, Week 2",Anhydrous
same,KF (%),"[1]; storage 25° C./0% RH, Week 3",0.0%
same,XRPD,"[1]; storage 25° C./0% RH, Week 3",Anhydrous
same,KF (%),"[1]; storage 25° C./0% RH, Week 4",0.2%
same,XRPD,"[1]; storage 25° C./0% RH, Week 4",Anhydrous
same,KF (%),"[1]; storage 25° C./97% RH, Week 1",0.3%
same,XRPD,"[1]; storage 25° C./97% RH, Week 1",Anhydrous
same,KF (%),"[1]; storage 25° C./97% RH, Week 2",0.3%
same,XRPD,"[1]; storage 25° C./97% RH, Week 2",Anhydrous
same,KF (%),"[1]; storage 25° C./97% RH, Week 3",0.2%
same,XRPD,"[1]; storage 25° C./97% RH, Week 3",Anhydrous
same,KF (%),"[1]; storage 25° C./97% RH, Week 4",0.4%
same,XRPD,"[1]; storage 25° C./97% RH, Week 4",Anhydrous
same,KF (%),"[1]; storage 40° C./0% RH, Week 1",0.1%
same,XRPD,"[1]; storage 40° C./0% RH, Week 1",Anhydrous
same,KF (%),"[1]; storage 40° C./0% RH, Week 2",0.0%
same,XRPD,"[1]; storage 40° C./0% RH, Week 2",Anhydrous
same,KF (%),"[1]; storage 40° C./0% RH, Week 3",0.0%
same,XRPD,"[1]; storage 40° C./0% RH, Week 3",Anhydrous
same,KF (%),"[1]; storage 40° C./0% RH, Week 4",0.2%
same,XRPD,"[1]; storage 40° C./0% RH, Week 4",Anhydrous
same,KF (%),"[1]; storage 40° C./75% RH, Week 1",0.3%
same,XRPD,"[1]; storage 40° C./75% RH, Week 1",Anhydrous
same,KF (%),"[1]; storage 40° C./75% RH, Week 2",0.2%
same,XRPD,"[1]; storage 40° C./75% RH, Week 2",Anhydrous
same,KF (%),"[1]; storage 40° C./75% RH, Week 3",0.1%
same,XRPD,"[1]; storage 40° C./75% RH, Week 3",Anhydrous
same,KF (%),"[1]; storage 40° C./75% RH, Week 4",0.3%
same,XRPD,"[1]; storage 40° C./75% RH, Week 4",Anhydrous
Cc1nc(-c2cnc(NC(C)C)n(C)c2=O)ccc1Oc1ccnc(-c2cnn(C)c2)c1.O.O [Crystalline dihydrate form of the compound represented by Fo] [listing 1 of 2 here],Particle Size d10,[2]; [4],3.6 microns
same,Particle Size d50,[2]; [4],8.4 microns
same,Particle Size d90,[2]; [4],16.2 microns
Cc1nc(-c2cnc(NC(C)C)n(C)c2=O)ccc1Oc1ccnc(-c2cnn(C)c2)c1.O.O [Crystalline dihydrate form of the compound represented by Fo] [listing 2 of 2 here],Particle Size d10,[2]; [4],3.9 microns
same,Particle Size d50,[2]; [4],8.5 microns
same,Particle Size d90,[2]; [4],16.0 microns
Cc1nc(-c2cnc(NC(C)C)n(C)c2=O)ccc1Oc1ccnc(-c2cnn(C)c2)c1.O.O [Dihydrate form of the compound represented by Formula (I) (h] [listing 1 of 2 here],KF (%),"[1]; storage 25° C./0% RH, Week 1",7.7%
same,XRPD,"[1]; storage 25° C./0% RH, Week 1",Dihydrate
same,KF (%),"[1]; storage 25° C./0% RH, Week 2",7.6%
same,XRPD,"[1]; storage 25° C./0% RH, Week 2",Dihydrate
same,KF (%),"[1]; storage 25° C./0% RH, Week 3",7.2%
same,XRPD,"[1]; storage 25° C./0% RH, Week 3",Dihydrate
same,KF (%),"[1]; storage 25° C./0% RH, Week 4",5.8%
same,KF (%),[1]; [5],5.8%
same,XRPD,[1]; [5],partially converted to the crystalline anhydrous form
same,KF (%),"[1]; storage 25° C./97% RH, Week 1",7.7%
same,XRPD,"[1]; storage 25° C./97% RH, Week 1",Dihydrate
same,KF (%),"[1]; storage 25° C./97% RH, Week 2",7.7%
same,XRPD,"[1]; storage 25° C./97% RH, Week 2",Dihydrate
same,KF (%),"[1]; storage 25° C./97% RH, Week 3",7.4%
same,XRPD,"[1]; storage 25° C./97% RH, Week 3",Dihydrate
same,KF (%),"[1]; storage 25° C./97% RH, Week 4",7.7%
same,XRPD,"[1]; storage 25° C./97% RH, Week 4",Dihydrate
same,XRPD,"[1]; storage 25° C./97% RH, Week 4, listed as crystalline dihydrate form (having average crystal sizes of about 1 mm)",remained stable and unchanged
same,KF (%),"[1]; storage 40° C./0% RH, Week 1",0.8%
same,KF (%),"[1]; storage 40° C./0% RH, Week 2",0.3%
same,KF (%),"[1]; storage 40° C./0% RH, Week 3",0.1%
same,XRPD,"[1]; storage 40° C./0% RH, Week 3",Anhydrous
same,KF (%),"[1]; storage 40° C./0% RH, Week 4",0.2%
same,KF (%),[1]; [6],0.2%
same,XRPD,[1]; [6],partially converted to the crystalline anhydrous form
same,KF (%),"[1]; storage 40° C./75% RH, Week 1",7.7%
same,XRPD,"[1]; storage 40° C./75% RH, Week 1",Dihydrate
same,KF (%),"[1]; storage 40° C./75% RH, Week 2",7.6%
same,XRPD,"[1]; storage 40° C./75% RH, Week 2",Dihydrate
same,KF (%),"[1]; storage 40° C./75% RH, Week 3",7.7%
same,XRPD,"[1]; storage 40° C./75% RH, Week 3",Dihydrate
same,KF (%),"[1]; storage 40° C./75% RH, Week 4",7.7%
same,XRPD,"[1]; storage 40° C./75% RH, Week 4",Dihydrate
same,XRPD,"[1]; storage 40° C./75% RH, Week 4, listed as crystalline dihydrate form (having average crystal sizes of about 1 mm)",remained stable and unchanged
Cc1nc(-c2cnc(NC(C)C)n(C)c2=O)ccc1Oc1ccnc(-c2cnn(C)c2)c1.O.O [Dihydrate form of the compound represented by Formula (I) (h] [listing 2 of 2 here],KF (%),"[1]; storage 25° C./0% RH, Week 1",7.5%
same,KF (%),"[1]; storage 25° C./0% RH, Week 2",7.7%
same,KF (%),"[1]; storage 25° C./0% RH, Week 3",8.1%
same,KF (%),"[1]; storage 25° C./0% RH, Week 4",7.9%
same,XRPD,"[1]; storage 25° C./0% RH, Week 4",Dihydrate
same,KF (%),"[1]; storage 25° C./97% RH, Week 1",7.6%
same,KF (%),"[1]; storage 25° C./97% RH, Week 2",7.5%
same,KF (%),"[1]; storage 25° C./97% RH, Week 3",7.9%
same,KF (%),"[1]; storage 25° C./97% RH, Week 4",7.9%
same,KF (%),"[1]; storage 40° C./0% RH, Week 1",7.5%
same,XRPD,"[1]; storage 40° C./0% RH, Week 1",Pattern 4
same,XRPD,"[1]; storage 40° C./0% RH, Week 1, listed as crystalline dihydrate form (having crystal sizes in the range of about 10-50 μm)",Pattern 4
same,KF (%),"[1]; storage 40° C./0% RH, Week 2",7.4%
same,XRPD,"[1]; storage 40° C./0% RH, Week 2",Pattern 4
same,XRPD,"[1]; storage 40° C./0% RH, Week 2, listed as crystalline dihydrate form (having crystal sizes in the range of about 10-50 μm)",Pattern 4
same,KF (%),"[1]; storage 40° C./0% RH, Week 3",7.0%
same,XRPD,"[1]; storage 40° C./0% RH, Week 3, listed as crystalline dihydrate form (having crystal sizes in the range of about 10-50 μm)",Pattern 4 and peaks at 9.9° and 10.6°
same,KF (%),"[1]; storage 40° C./0% RH, Week 4",3.4%
same,XRPD,"[1]; storage 40° C./0% RH, Week 4, listed as crystalline dihydrate form (having crystal sizes in the range of about 10-50 μm)",Pattern 4 and peaks at 9.9° and 10.6°
same,KF (%),"[1]; storage 40° C./75% RH, Week 1",7.5%
same,KF (%),"[1]; storage 40° C./75% RH, Week 2",7.9%
same,KF (%),"[1]; storage 40° C./75% RH, Week 3",8.0%
same,KF (%),"[1]; storage 40° C./75% RH, Week 4",7.9%
Cc1nc(-c2cnc(NC(C)C)n(C)c2=O)ccc1Oc1ccnc(-c2cnn(C)c2)c1.O.O [Lot 1],Particle Size d10,[2]; [7],2 microns
same,Particle Size d50,[2]; [7],5 microns
same,Particle Size d90,[2]; [7],13 microns
same,D(10),[3]; listed as 1,9 μm
same,D(50),[3]; listed as 1,29 μm
same,D(90),[3]; listed as 1,59 μm
Cc1nc(-c2cnc(NC(C)C)n(C)c2=O)ccc1Oc1ccnc(-c2cnn(C)c2)c1.O.O [Lot 2],Particle Size d10,[2]; [8],2 microns
same,Particle Size d50,[2]; [8],6 microns
same,Particle Size d90,[2]; [8],11 microns
same,D(10),[3]; listed as 2,6 μm
same,D(50),[3]; listed as 2,18 μm
same,D(90),[3]; listed as 2,37 μm
